How the values were obtained:
Pseudomonas aeruginosa = conditions: mixed-species biofilms grown 22 hours, 20 hours of treatment
Experimental: (§1) Several CSA compounds were tested against Pseudomonas aeruginosa and Staphylococcus aureus mixed-species biofilms grown for an initial 22 hours and subjected to 20 hours of treatment.

Staphylococcus aureus [1] = conditions: mixed-species biofilms grown 22 hours, 20 hours of treatment
Experimental: as §1

[2] = tested on: All (74) clinical isolates; assay: Broth microdilution MIC, HABP/VABP clinical isolates; type: cell-based
Experimental: (§2) CSA-131 was tested in vitro against a set of clinical isolates representing bacterial species commonly associated with hospital-acquired bacterial pneumonia (HABP) or ventilator-associated bacterial pneumonia (VABP). Antimicrobial susceptibility testing for 74 clinical isolates was performed. Broth microdilution using frozen-form MIC panels consisted of three media types: cation-adjusted Mueller-Hinton broth (CA-HMB), CA-HMB supplemented with 2.5-5% lysed horse blood for S. pneumoniae and Haemophilus test media (HTM) for Haemophilus spp.

Enterobacteriaceae = assay: as above; type: cell-based; conditions: Enterobacteriaceae (22)
Experimental: as §2

Haemophilus spp. = assay: as above; type: cell-based
Experimental: as §2

Staphylococcus aureus [3] = assay: as above; type: cell-based; conditions: Staphylococcus aureus (10)
Experimental: as §2

Streptococcus Pneumoniae = assay: as above; type: cell-based; conditions: Streptococcus Pneumoniae (10)
Experimental: as §2

Candida auris isolates = assay: Antifungal MIC, CLSI M27-A3; type: cell-based
Experimental: The antifungal effectiveness of CSA-131 was tested against 100 Candida auris isolates. The C. auris isolates were from all over the world and covered known C. auris clades. The selection included isolated known to have elevated MIC values against fluconazole, the echinocandins, and/or amphotericin B.
Testing was performed according to the standards of the Clinical and Laboratory Standards Institute reference methodology M27-A3 (as of 2017). CSA-131 was dissolved in DMSO and diluted as described in M27-A3 to give a final DMSO concentration of <1%. Dilution plates were stored at −70° C. until used and were used within one week of being produced. All results were read visually after 24 hours of incubation at the lowest drug concentration at which there was a 50% decrease in growth by visual inspection. Quality control isolates C. parapsilosis ATCC 22019 and C. krusei ATCC 6258 were included on each day of testing although there are no standard QC values for these isolates against this compound. The MIC values for ATCC 22019 and ATCC 6258 remained within a tight range of 1-2 dilutions over the course of the study.

[4] = Duration of efficacy of silicone-based Foley catheter with CSA-131; conditions: hydrogel coating approximately 10 μm including CSA-131
Source text: A silicone-based Foley catheter was coated with a hydrogel coating of approximately 10 μm in thickness. The coating included CSA-131. The coating was initially shown to maintain efficacy for about 6-7 days. A silicone-based Foley catheter was formed using silicone mixed with an NDSA salt form of CSA-131.

[5] = Pre-term lambs intubated with coated endotracheal tubes, tracheal mucosal integrity; type: in vivo
Source text: Pre-term lambs were intubated using endotracheal tubes (ETTs) including a coating having CSA-131. Tracheal mucosal integrity of the lambs was compared to the tracheal mucosal integrity of a control group (intubated with uncoated ETTs). […] FIG. 2 illustrates the histological appearance of tracheas of the premature lambs that were intubated for three days. […] An area of denuded epithelium (arrowhead), and accumulation of white blood cells (arrow) are highlighted.

[6] = 100 C. auris isolates, 50% decrease in growth, 24 hours
[7] = fluconazole Resistant isolates, 69
[8] = fluconazole Susceptible isolates, 30
[9] = isolates with elevated echinocandin MICs, 7

Structure (SMILES): CCCCCCCCCCCCNCCC[C@@H](C)[C@H]1CC[C@H]2[C@@H]3[C@H](OCCCN)C[C@@H]4C[C@H](OCCCN)CC[C@]4(C)[C@H]3C[C@H](OCCCN)[C@]12C.Cl.Cl.Cl.Cl [CSA-131]
- MBC P. aeruginosa (Pseudomonas aeruginosa): 3.125 µg/mL
- MIC P. aeruginosa (Pseudomonas aeruginosa): 3.125 µg/mL
- MBC S. aureus (Staphylococcus aureus [1]): 1.56 µg/mL
- MIC S. aureus (Staphylococcus aureus [1]): 0.78 µg/mL
- MIC50 [2]: 4 µg/mL
- MIC90 [2]: 8 µg/mL
- No. of isolates at MIC 2 μg/ml [2]: 23
- No. of isolates at MIC 4 μg/ml [2]: 40
- No. of isolates at MIC 8 μg/ml [2]: 11
- cumulative % inhibited at 2 μg/ml [2]: 31.1%
- cumulative % inhibited at 4 μg/ml [2]: 85.1%
- cumulative % inhibited at 8 μg/ml [2]: 100%
- MIC50 (Enterobacteriaceae): 4 µg/mL
- MIC90 (Enterobacteriaceae): 4 µg/mL
- No. of isolates at MIC 2 μg/ml (Enterobacteriaceae): 4
- No. of isolates at MIC 4 μg/ml (Enterobacteriaceae): 18
- No. of isolates at MIC 8 μg/ml (Enterobacteriaceae): 0
- cumulative % inhibited at 2 μg/ml (Enterobacteriaceae): 18.2%
- cumulative % inhibited at 4 μg/ml (Enterobacteriaceae): 100%
- cumulative % inhibited at 8 μg/ml (Enterobacteriaceae): 100%
- MIC50 (Haemophilus spp.; Haemophilus spp. (10)): 8 µg/mL
- MIC90 (Haemophilus spp.; Haemophilus spp. (10)): 8 µg/mL
- No. of isolates at MIC 4 μg/ml (Haemophilus spp.; Haemophilus spp. (10)): 0 (0%)
- No. of isolates at MIC 8 μg/ml (Haemophilus spp.; Haemophilus spp. (10)): 10
- cumulative % inhibited at 2 μg/ml (Haemophilus spp.; Haemophilus spp. (10)): 0 (0%)
- cumulative % inhibited at 4 μg/ml (Haemophilus spp.; Haemophilus spp. (10)): 0 (0%)
- cumulative % inhibited at 8 μg/ml (Haemophilus spp.; Haemophilus spp. (10)): 100%
- No. of isolates at MIC 2 μg/ml (Haemophilus spp.; Haemophilus spp. (10): 8 H. influenza, 2 H. parainfluenzae): 0 (0%)
- MIC50 (Staphylococcus aureus [3]): 2 µg/mL
- MIC90 (Staphylococcus aureus [3]): 2 µg/mL
- No. of isolates at MIC 2 μg/ml (Staphylococcus aureus [3]): 10
- No. of isolates at MIC 4 μg/ml (Staphylococcus aureus [3]): 0
- No. of isolates at MIC 8 μg/ml (Staphylococcus aureus [3]): 0
- cumulative % inhibited at 2 μg/ml (Staphylococcus aureus [3]): 100%
- cumulative % inhibited at 4 μg/ml (Staphylococcus aureus [3]): 100%
- cumulative % inhibited at 8 μg/ml (Staphylococcus aureus [3]): 100%
- MIC50 (Streptococcus Pneumoniae): 4 µg/mL
- MIC90 (Streptococcus Pneumoniae): 4 µg/mL
- No. of isolates at MIC 2 μg/ml (Streptococcus Pneumoniae): 0 (0%)
- No. of isolates at MIC 4 μg/ml (Streptococcus Pneumoniae): 10
- No. of isolates at MIC 8 μg/ml (Streptococcus Pneumoniae): 0
- cumulative % inhibited at 2 μg/ml (Streptococcus Pneumoniae): 0 (0%)
- cumulative % inhibited at 4 μg/ml (Streptococcus Pneumoniae): 100%
- cumulative % inhibited at 8 μg/ml (Streptococcus Pneumoniae): 100%
- No. of Isolates at MIC 0.016 (Candida auris isolates; 100 C. auris isolates): 0
- No. of Isolates at MIC 0.03 (Candida auris isolates; 100 C. auris isolates): 0
- No. of Isolates at MIC 0.0625 (Candida auris isolates; 100 C. auris isolates): 0
- No. of Isolates at MIC 0.125 (Candida auris isolates; 100 C. auris isolates): 0
- No. of Isolates at MIC 0.25 (Candida auris isolates; 100 C. auris isolates): 0
- No. of Isolates at MIC 0.5 (Candida auris isolates; 100 C. auris isolates): 39
- No. of Isolates at MIC 1 (Candida auris isolates; 100 C. auris isolates): 61
- No. of Isolates at MIC 2 (Candida auris isolates; 100 C. auris isolates): 0
- No. of Isolates at MIC <0.016 (Candida auris isolates; 100 C. auris isolates): 0
- No. of Isolates at MIC >2 (Candida auris isolates; 100 C. auris isolates): 0
- MIC50 (Candida auris isolates; [6]): 1 µg/mL
- MIC90 (Candida auris isolates; [6]): 1 µg/mL
- MIC Mode (Candida auris isolates; [6]): 1 µg/mL
- MIC Range (Candida auris isolates; 100 C. auris isolates, 50% decrease in growth, 24 hours, in µg/mL): 0.5-1
- activity against C. auris collection (Candida auris isolates; 100 isolates, 4 clades): showed activity against all C. auris
- MIC50 (Candida auris isolates; Clade 1, 47 isolates): 1 µg/mL
- MIC90 (Candida auris isolates; Clade 1, 47 isolates): 1 µg/mL
- MIC Mode (Candida auris isolates; Clade 1, 47 isolates): 1 µg/mL
- MIC Range (Candida auris isolates; Clade 1, 47 isolates): 0.5 to 1 µg/mL
- MIC50 (Candida auris isolates; Clade 2, 11 isolates): 1 µg/mL
- MIC90 (Candida auris isolates; Clade 2, 11 isolates): 1 µg/mL
- MIC Mode (Candida auris isolates; Clade 2, 11 isolates): 1 µg/mL
- MIC Range (Candida auris isolates; Clade 2, 11 isolates): 0.5 to 1 µg/mL
- MIC50 (Candida auris isolates; Clade 3, 39 isolates): 1 µg/mL
- MIC90 (Candida auris isolates; Clade 3, 39 isolates): 1 µg/mL
- MIC Mode (Candida auris isolates; Clade 3, 39 isolates): 1 µg/mL
- MIC Range (Candida auris isolates; Clade 3, 39 isolates): 0.5 to 1 µg/mL
- MIC50 (Candida auris isolates; Clade 4, 3 isolates): 0.5 µg/mL
- MIC90 (Candida auris isolates; Clade 4, 3 isolates): 1 µg/mL
- MIC Mode (Candida auris isolates; Clade 4, 3 isolates): 0.5 µg/mL
- MIC Range (Candida auris isolates; Clade 4, 3 isolates): 0.5 to 1 µg/mL
- MIC50 (Candida auris isolates; [7]): 1 µg/mL
- MIC90 (Candida auris isolates; [7]): 1 µg/mL
- MIC Mode (Candida auris isolates; [7]): 1 µg/mL
- MIC Range (Candida auris isolates; [7]): 0.5 to 1 µg/mL
- MIC50 (Candida auris isolates; [8]): 0.5 µg/mL
- MIC90 (Candida auris isolates; [8]): 1 µg/mL
- MIC Range (Candida auris isolates; [8]): 0.5 to 1 µg/mL
- MIC50 (Candida auris isolates; [9]): 1 µg/mL
- MIC90 (Candida auris isolates; [9]): 1 µg/mL
- MIC Mode (Candida auris isolates; [9]): 1 µg/mL
- MIC Range (Candida auris isolates; isolates with elevated echinocandin MICs, 7, in µg/mL): 0.5-1
- time coating maintains efficacy [4]: 6 to 7 days
- tracheal mucosal integrity vs control group (uncoated ETTs) ([5]; pre-term lambs intubated with ETTs coated with CSA-131 coating): markedly improved mucosal integrity
- histological appearance of trachea (FIG. 2, image b) ([5]; premature lambs intubated for three days, CSA-131 coated ETT): the epithelium is healthy and intact, and the subjacent connective tissue region is not inflamed
